The text below walks through data of article PMC11984905, “Chiral Switch of Gadopiclenol: New Standards in MRI Probes” (Advanced Science, 2025).

Data set [1] is described as follows: Stability and protonation constants of Cu(II)-complexes (spectrophotometry, pH-potentiometry). It counts as physicochemical. The settings on record: 0.15 M NaCl, 25 °C. How it is done:
The stability constants of the Cu(II)‐complexes with rac‐L1, ent‐L1, rac‐L2 and ent‐L2 ligands were determined by spectrophotometry studying the Cu(II) – rac‐L1, Cu(II) – ent‐L1, Cu(II) – rac‐L2 and Cu(II) – ent‐L2 systems at the absorption band of Cu(II)‐complexes at [H^+] = 0.01–1.0 M in the wavelength range of 400–800 nm. The concentrations of CuCl2, rac‐L1, ent‐L1, rac‐L2 and ent‐L2 ligands were 0.002 M. The H^+ concentration in the samples was adjusted with the addition of calculated amounts of 3 M HCl. (I = [Na^+]+[H^+] = 0.15, [H^+]≤0.15 M). The samples were kept at 25 °C for a week. The absorbance values of the samples were determined at 11 wavelengths (575, 595, 615, 635, 655, 675, 695, 715, 735, 755, and 775 nm). For the calculations of the stability and protonation constants of the Cu(II)‐complexes, the molar absorptivities of CuCl2 and Cu(II)‐complexes were determined by recording the spectra of 1.0 × 10^−3, 1.5 × 10^−3, 2.0 × 10^−3, and 2.5 × 10^−3 M solutions of CuCl2 and Cu(II)‐complexes in the pH range of 1.7–7.5. The pH was adjusted by stepwise addition of concentrated NaOH or HCl solutions. The spectrophotometric measurements were made with a PerkinElmer Lambda 365 UV–vis spectrophotometer at 25 °C, using 1.0 cm cells.
The stability and protonation constants of Cu(II) complexes with rac-L1, ent-L1, rac-L2 and ent-L2 have been determined by spectrophotometry. The equilibrium reaction (Equation (S8)) has been studied in the [H^+] range of 0.01 – 1.0 M (the ionic strength was constant I=[Na^+]+[H^+]=0.15 in the samples [H^+]≤0.15 M), where the formation of Cu^2+, CuHx-yL and HxL species was assumed ([Cu(rac-L1)]^4- and [Cu(ent-L1)]^4-: x=6 and 7, y=4 and 5; [Cu(rac-L2)]^4- and [Cu(ent-L2)]^4-: x=3 and 4, y=1 and 2).
The protonation constants of Cu(II)-complexes with rac-L1, ent-L1, rac-L2 and ent-L2 have been determined by pH-potentiometric and spectrophotometric titrations of the complexes in the pH range 1.7 – 7.0. These studies reveal that [Cu(rac-L1)]^4- and [Cu(ent-L1)]^4- complexes can form mono-, di-, tri, tetra- and penta-protonated species via the protonation of all distant and two closer carboxylate groups of the pendant arms. Moreover, the pH potentiometric studies also indicate that the [Cu(rac-L2)]^- and [Cu(ent-L2)]^- complexes can form mono- and di-protonated species via the protonation of two carboxylate groups. […] Moreover, the maximum of the absorption band for the [Cu(H5L)]^+ species in Cu^2+ – ent-L1 system is also similar to that of [Cu(H2L)]^+ in Cu^2+ – ent-L2 system ([…], Figures S45 and S47). The maximum of the absorption band is shifted from 730 to 750 nm by the deprotonation of [Cu(H5L)]^+ and [Cu(H2L)]^+ via the formation of [Cu(H4L)] and [Cu(HL)] species in Cu^2+– rac-L1 and Cu^2+– rac-L2 systems (Figures S44 and S46).

Data set [2] is described as follows: Protonation constants of the ligands (pH-potentiometry). Type of data set: physicochemical. The settings on record: 0.15 M NaCl, 25 °C; for ΣlogKi^H: total basicity. How it is done:
The protonation constants of ligands, the stability and protonation constants of Ca(II)‐ and Zn(II)‐complexes formed with rac‐L1, ent‐L1, rac‐L2, and ent‐L2 ligands were determined by pH‐potentiometric titration. The metal‐to‐ligand concentration ratio was 1:1 (the concentration of the ligand was generally 0.002 M). The protonation constants of the Cu(II)‐ and Gd(III)‐complexes were determined using pH‐potentiometry by titrating the pre‐prepared complexes from pH 2.0 to 12.0 with 0.2 M NaOH. The stability constants of the Gd(III)‐complexes with rac‐L1 and ent‐L1 ligands were determined by the “out‐of‐cell” technique because of their slow formation reaction. The pH range of the complexation equilibria and the time needed to reach the equilibria were determined by relaxometry. Eight–eight Gd(III) – rac‐L1 and Gd(III) – ent‐L1 samples were prepared, with pH values in the range of 1.7–3.0 at equilibrium ([Gd^3+] = [L] = 0.002 M). The samples were kept at 25 °C for 6 weeks to reach equilibrium. For the calculation of the stability constants of the [Gd(rac‐L1)]^3− and [Gd(ent‐L1)]^3− complexes, besides the protonation constants of ligands and the Gd(III) complexes, the stability constants of the di‐protonated [^*Gd(H2 rac‐L1)]^− and [^*Gd(H2 […])]^− out‐of‐cage complexes (considered as intermediates) was also used as fixed values, which were calculated from the pH‐potentiometric titration curve of the Gd(III) – rac‐L1 and Gd(III) – ent‐L1 system obtained in the pH range of 1.7–7.0.
For the pH measurements and titrations, the Metrohm 888 Titrando titration workstation Metrohm‐6.0234.110 combined electrode was used. Equilibrium measurements were carried out at a constant ionic strength (0.15 M NaCl) in 6 mL samples at 25 °C. The solutions were stirred, and N2 was bubbled through them. The titrations were made in the pH range 1.7–12.0. KH‐Phthalate (pH 4.005) and borax (pH 9.177) buffers were used to calibrate the pH meter. For the calculation of [H^+] from the measured pH values, the method proposed by Irving et al. was used as follows.^[ [46] ^] A 0.01M HCl solution was titrated with standardized NaOH solution at 0.15 M NaCl ionic strength. The differences (A) between the measured (pHread) and calculated pH (‐log[H^+]) values were used to obtain the equilibrium H^+ concentration from the pH values measured in the titration experiments (A = 0.02). For the equilibrium calculations, the stoichiometric water ionic product (pK w) was also needed in order to calculate [OH^−] values under basic conditions. The VNaOH – pHread data pairs of the HCl – NaOH titration obtained in the pH range 10.5–12.0 were used to calculate the pK w value (pK w = 13.83).
The protonation constants of ligands, defined by Equation (S1), were determined by pH-potentiometry.
where i=1, 2…7. Standard deviations (3σ) are shown in parentheses. In Table S16, the logKi^H values of rac-L1 and rac-L2 can be regarded as the weighted average of the given protonation constant characterizing the basicity of the related protonation site in the different stereoisomers.

For the compound `O=C(O)CCC(C(=O)O)N1CCN(C(CCC(=O)O)C(=O)O)Cc2cccc(n2)CN(C(CCC(=O)O)C(=O)O)CC1` (stereo not drawn) [ent‐L1], in data set [1], the “logK CuL” value is given as 23.22 (6), the logKCuH2L is reported as 4.72 (2), the logKCuH3L was 4.11 (2) and the logKCuH4L is 3.36 (2). For the same compound, in data set [1], the logKCuH5L is recorded as 1.31 (2) and the logKCuHL is recorded as 5.25 (2). Further, in data set [2], the “logK1^H” value is given as 10.62 (1), the “logK2^H” value is on record as 6.82 (1), the “logK3^H” value is on record as 5.50 (2) and the “logK4^H” value is on record as 4.89 (2). In data set [2], the “logK5^H” value is recorded as 4.19 (2), the “logK6^H” value is 3.88 (2), the “logK7^H” value is recorded as 2.30 (2) and the “ΣlogKi^H” value is 38.20.

`O=C(CCC(C(=O)O)N1CCN(C(CCC(=O)NCC(O)CO)C(=O)O)Cc2cccc(n2)CN(C(CCC(=O)NCC(O)CO)C(=O)O)CC1)NCC(O)CO` (stereo not drawn) [ent‐L2]: in data set [1], the “logK CuL” value is listed as 21.52 (4), the logKCuH2L was 1.44 (1) and the logKCuHL is recorded as 3.27 (1). Also, in data set [2], the “logK1^H” value is recorded as 10.43(1), the “logK2^H” value is 5.95 (1), the “logK3^H” value is listed as 4.08 (1) and the “logK4^H” value is 2.05 (2). Moreover, the “ΣlogKi^H” value in data set [2] came out at 22.51.

As to `O=C(O)CCC(C(=O)O)N1CCN(C(CCC(=O)O)C(=O)O)Cc2cccc(n2)CN(C(CCC(=O)O)C(=O)O)CC1` (racemic) [rac‐L1, 2,2’,2’’-[3,6,9,15-tetraazabicyclo[9.3.1]pentadeca-1(15),11,13-triene-3,6,9-triyl]tripentanedioic acid], in data set [1], the “logK CuL” value is given as 23.26(4), the logKCuH2L is 4.80 (2), the logKCuH3L was 4.28 (2) and the logKCuH4L was 3.69 (2). For the same compound, in data set [1], the logKCuH5L is 2.33 (2) and the logKCuHL is on record as 5.38 (3). For the same compound, in data set [2], the “logK1^H” value is listed as 10.58 (1), the “logK2^H” value is listed as 6.99 (1), the “logK3^H” value is 5.50 (1) and the “logK4^H” value is 4.82 (1). Further, in data set [2], the “logK5^H” value was 4.23 (1), the “logK6^H” value was 3.65 (1), the “logK7^H” value is on record as 2.34 (2) and the “ΣlogKi^H” value is given as 38.11.

For the compound `O=C(CCC(C(=O)O)N1CCN(C(CCC(=O)NCC(O)CO)C(=O)O)Cc2cccc(n2)CN(C(CCC(=O)NCC(O)CO)C(=O)O)CC1)NCC(O)CO` (racemic) [rac‐L2], in data set [1], the “logK CuL” value was 21.04 (5), the logKCuH2L is given as 2.58 (5) and the logKCuHL was 4.42 (4). Also, in data set [2], the “logK1^H” value is 9.58 (1), the “logK2^H” value is 5.96 (2), the “logK3^H” value is 4.30 (3) and the “logK4^H” value is 2.86 (3). Moreover, the “ΣlogKi^H” value in data set [2] is recorded as 22.70.
